# Experimental data taken from patent US7524852B2, “Bicyclic pyrimidine derivatives” (Kyowa Hakko Kogyo Co., Ltd., priority 2002, dated 2009).
# Test system: Hut78 cells
# Experiment: Inhibitory activity on binding of [125I]-TARC to Hut78 cells
# Conditions: [125I]-TARC binding to Hut78 cells; test compound at 1 μmol/L
# Method: The RPMI-1640 medium (Sigma-Aldrich Japan) containing 20 mmol/L HEPES [4-(2-hydroxyethyl)-1-piperazinylethanesulfonic acid; HEPES, Nacalai Tesque, Inc.] and 0.1 w/v % bovine serum albumin (SEIKAGAKU CORPORATION) was adjusted to pH 7.0 with sodium hydrogen carbonate (Wako Pure Chemical Industries, Ltd.) to yield a binding/wash buffer. In a 96-well round-bottomed plate (Corning Costar Corporation) were placed 60 μL of a suspension of Hut78 cells (ATCC No. TIB-161) ([…] cells) in the binding/wash buffer, 20 μL of a solution of a test compound and 20 μL of a solution of 810 Bq of [^125I]-TARC (Amersham Biosciences K.K.) diluted with the binding/wash buffer up to the total aliquot of 100 μL, followed by reaction at room temperature for two hours. The solution of the test compound had been prepared by dissolving the test compound in dimethyl sulfoxide (Nacalai Tesque, Inc.) to a concentration of 10 mmol/L, and diluting the solution with the binding/wash buffer to a series of concentrations. The nonspecific binding was determined by a binding assay in the presence of a sufficient amount of unlabeled TARC. The total binding was defined as a binding in the case where dimethyl sulfoxide (Nacalai Tesque, Inc.) was added, instead of the test compound, in the same concentration (0.1 v/v %). […] Microscinti 20 (Packard BioScience Company) was placed in each well at 50 μL/well, and the radioactivity on the glass filter was determined using Topcount NXT™ (Packard BioScience Company). The binding inhibitory rates (%) of the test compounds were determined by calculation according to the following equation:
# [formula] Total binding: [^125I]-TARC binding radioactivity without addition of the test compound Binding upon addition of test compound: [^125I]-TARC binding radioactivity at respective concentration upon addition of test compound Nonspecific binding: [^125I]-TARC binding radioactivity upon addition of unlabeled TARC
row,Structure (SMILES),The Binding Inhibitory Rates at 1 μmol/L
1,CCNC(=O)N1CCc2nc(N3CCN(C[C@@H]4CN(C)CCO4)CC3)nc(NCc3ccc(Cl)cc3Cl)c2C1 [Compound 15-47],96
2,CCCNC(=O)N1CCc2nc(N3CCN(CC4CN(C)CCO4)CC3)nc(NCc3ccc(Cl)cc3Cl)c2C1 (stereo not drawn) [Compound 15-54],97
3,CCCNC(=O)N1CCc2nc(N3CCN(CC4CN(C)CCO4)CC3)nc(NCc3ccc(Cl)cc3Cl)c2C1 (stereo not drawn) [Compound 15-59],90
